According to patent publication US7514452B2, “2-furancarboxylic acid hydrazides and pharmaceutical compositions containing the same” (Dainippon Pharmaceutical Co., Ltd, priority 2002, dated 2009):

Experiments:
glucagon receptor [1] = target: glucagon receptor (Rattus norvegicus, UniProt P30082); experiment: Experiment for glucagon binding inhibition, rat hepatic membrane (125I-glucagon); details: male SD rat hepatic membrane, 125I-glucagon 50 pM, 25° C. for 30 minutes; read-out: Glucagon binding inhibitory activity IC50 (nM) Rat
In short: (§1)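 Liver membranes from male SD rats or male ddY mice were incubated with 125I-glucagon and compound for 30 min at 25 °C. Bound radioactivity was collected on filters washed with pH 7.2 Tris-HCl and counted by γ counter, in duplicate. IC50 was taken from a pseudo Hill plot.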

glucagon receptor [2] = target: glucagon receptor (Mus musculus, UniProt Q61606); experiment: Experiment for glucagon binding inhibition, mouse hepatic membrane (125I-glucagon); details: male ddY mouse hepatic membrane, 125I-glucagon 50 pM, 25° C. for 30 minutes; read-out: Glucagon binding inhibitory activity IC50 (nM) Mouse
In short: as §1

Chain of glucagon receptor (Rattus norvegicus, UniProt P30082) (P30082 27-485): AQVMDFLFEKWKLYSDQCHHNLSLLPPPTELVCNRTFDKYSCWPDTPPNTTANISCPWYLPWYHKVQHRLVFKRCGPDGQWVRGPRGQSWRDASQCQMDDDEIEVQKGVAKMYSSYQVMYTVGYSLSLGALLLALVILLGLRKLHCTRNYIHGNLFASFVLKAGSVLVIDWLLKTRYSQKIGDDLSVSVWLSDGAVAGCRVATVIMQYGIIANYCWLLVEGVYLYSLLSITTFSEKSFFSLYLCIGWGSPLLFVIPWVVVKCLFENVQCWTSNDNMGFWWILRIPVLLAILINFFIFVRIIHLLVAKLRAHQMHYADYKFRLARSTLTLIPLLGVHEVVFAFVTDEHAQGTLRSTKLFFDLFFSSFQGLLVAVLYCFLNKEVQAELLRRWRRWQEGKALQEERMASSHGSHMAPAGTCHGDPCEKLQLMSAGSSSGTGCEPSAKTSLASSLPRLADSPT
Chain of glucagon receptor (Mus musculus, UniProt Q61606) (Q61606 27-485): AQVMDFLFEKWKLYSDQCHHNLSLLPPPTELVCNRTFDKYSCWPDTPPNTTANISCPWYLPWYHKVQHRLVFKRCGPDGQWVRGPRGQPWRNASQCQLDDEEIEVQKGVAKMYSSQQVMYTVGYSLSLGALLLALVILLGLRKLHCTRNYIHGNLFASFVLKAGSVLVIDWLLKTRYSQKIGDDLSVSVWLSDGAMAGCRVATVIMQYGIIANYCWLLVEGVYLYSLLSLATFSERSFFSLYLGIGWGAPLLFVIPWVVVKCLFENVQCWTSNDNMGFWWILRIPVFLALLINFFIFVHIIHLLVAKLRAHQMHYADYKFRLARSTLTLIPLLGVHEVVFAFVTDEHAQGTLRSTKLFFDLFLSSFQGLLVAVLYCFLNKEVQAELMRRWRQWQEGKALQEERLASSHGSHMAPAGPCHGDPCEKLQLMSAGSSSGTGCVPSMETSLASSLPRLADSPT

| SMILES | melting point [°C] | IC50 (glucagon receptor [1]) [nM] | IC50 (glucagon receptor [2]) [nM] |
| --- | --- | --- | --- |
| CS(=O)(=O)c1ccc(COc2cccc(-c3ccoc3C(=O)NNC(=O)c3ccc(O)c([N+](=O)[O-])c3)c2)cc1 [Example 120, 3-[3-(4-Methylsulfonylbenzyloxy)phenyl]-2-furancarboxylic acid 2-(4-hydroxy-3-nitrobenzoyl)hydrazide] | 114 to 117 | 37 | 27 |
| O=C(NNC(=O)c1occc1-c1cccc(OCc2ccc3ccccc3c2)c1)c1ccc(O)c([N+](=O)[O-])c1 [Example 204] | 198 to 199 | 3.6 | 5.4 |
| CC(C)CCOc1cccc(-c2ccoc2C(=O)NNC(=O)c2ccc(O)c([N+](=O)[O-])c2)c1 [Example 180, 3-(3-Isopentyloxyphenyl)-2-furancarboxylic acid 2-(4-hydroxy-3-nitrobenzoyl)hydrazide] | 122 to 124 | 84 | 46 |
| Cc1ccccc1COc1cccc(-c2ccoc2C(=O)NNC(=O)c2ccc(O)c([N+](=O)[O-])c2)c1 [Example 119, 3-[3-(2-methylbenzyloxy)phenyl]-2-furancarboxylic acid 2-(4-hydroxy-3-nitrobenzoyl)hydrazide] | 114 to 115 | 16 | 9.6 |
| CS(=O)(=O)c1ccc(COc2cccc(-c3ccoc3C(=O)NNC(=O)c3ccc(O)c(C#N)c3)c2)cc1 [Example 136, 3-[3-(4-methylsulfonylbenzyloxy)phenyl]-2-furancarboxylic acid 2-(3-cyano-4-hydroxybenzoyl)hydrazide] | 235 to 237 | 96 | 48 |
| CCCCCCc1cccc(-c2ccoc2C(=O)NNC(=O)c2ccc(O)c([N+](=O)[O-])c2)c1 [Example 188, 3-(3-Hexylphenyl)-2-furancarboxylic acid 2-(4-hydroxy-3-nitrobenzoyl)hydrazide] | 87 to 89 | 26 | 28 |
| O=C(NNC(=O)c1occc1-c1cccc(CCc2ccccc2)c1)c1ccc(O)c([N+](=O)[O-])c1 [Example 232] | 149 to 152 | 38 | 34 |
| O=C(NNC(=O)c1occc1-c1cccc(OCc2cccc3ccccc23)c1)c1ccc(O)c([N+](=O)[O-])c1 [Example 203] | 152 to 153 | 7.9 | 7.7 |

The remaining lines, values ahead:

| melting point [°C] | IC50 (glucagon receptor [1]) [nM] | IC50 (glucagon receptor [2]) [nM] | SMILES |
| --- | --- | --- | --- |
| 185 to 187 | 290 | 270 | Cn1ccc2cc(-c3ccoc3C(=O)NNC(=O)c3ccc(O)c([N+](=O)[O-])c3)ccc21 [Example 208] |
| 194 to 196 | 24 | 18 | CC(C)c1ccc(-c2ccoc2C(=O)NNC(=O)c2ccc(O)c([N+](=O)[O-])c2)cc1 [Example 153, 3-(4-Isopropylphenyl)-2-furancarboxylic acid 2-(4-hydroxy-3-nitrobenzoyl)hydrazide] |
| 149 to 151 | 49 | 18 | Cc1cccc(Cc2cccc(-c3ccoc3C(=O)NNC(=O)c3ccc(O)c([N+](=O)[O-])c3)c2)c1 [Example 235] |
| 160 to 162 | 5.5 | 3 | O=C(NNC(=O)c1occc1-c1cccc(Cc2ccccc2)c1)c1ccc(O)c([N+](=O)[O-])c1 [Example 189, 3-(3-Benzylphenyl)-2-furancarboxylic acid 2-(4-hydroxy-3-nitrobenzoyl)hydrazide] |
| 147 to 149 | 33 | 120 | CC(c1ccccc1)c1cccc(-c2ccoc2C(=O)NNC(=O)c2ccc(O)c([N+](=O)[O-])c2)c1 (stereo not drawn) [Example 230] |
